The experiment concerns the target Receptor-type tyrosine-protein kinase FLT3 (Homo sapiens) (UniProt P36888). Nature of the experiment: inhibition of human FLT3 receptor tyrosine kinase – biochemical, Z'-LYTE, FRET, protease-coupled, direct format, dose response (AID 1671268). The settings on record: recombinant FLT3, Z'-LYTE FRET peptide phosphorylation.

Sequence of Receptor-type tyrosine-protein kinase FLT3 (Homo sapiens) (P36888 whole entry, looked up): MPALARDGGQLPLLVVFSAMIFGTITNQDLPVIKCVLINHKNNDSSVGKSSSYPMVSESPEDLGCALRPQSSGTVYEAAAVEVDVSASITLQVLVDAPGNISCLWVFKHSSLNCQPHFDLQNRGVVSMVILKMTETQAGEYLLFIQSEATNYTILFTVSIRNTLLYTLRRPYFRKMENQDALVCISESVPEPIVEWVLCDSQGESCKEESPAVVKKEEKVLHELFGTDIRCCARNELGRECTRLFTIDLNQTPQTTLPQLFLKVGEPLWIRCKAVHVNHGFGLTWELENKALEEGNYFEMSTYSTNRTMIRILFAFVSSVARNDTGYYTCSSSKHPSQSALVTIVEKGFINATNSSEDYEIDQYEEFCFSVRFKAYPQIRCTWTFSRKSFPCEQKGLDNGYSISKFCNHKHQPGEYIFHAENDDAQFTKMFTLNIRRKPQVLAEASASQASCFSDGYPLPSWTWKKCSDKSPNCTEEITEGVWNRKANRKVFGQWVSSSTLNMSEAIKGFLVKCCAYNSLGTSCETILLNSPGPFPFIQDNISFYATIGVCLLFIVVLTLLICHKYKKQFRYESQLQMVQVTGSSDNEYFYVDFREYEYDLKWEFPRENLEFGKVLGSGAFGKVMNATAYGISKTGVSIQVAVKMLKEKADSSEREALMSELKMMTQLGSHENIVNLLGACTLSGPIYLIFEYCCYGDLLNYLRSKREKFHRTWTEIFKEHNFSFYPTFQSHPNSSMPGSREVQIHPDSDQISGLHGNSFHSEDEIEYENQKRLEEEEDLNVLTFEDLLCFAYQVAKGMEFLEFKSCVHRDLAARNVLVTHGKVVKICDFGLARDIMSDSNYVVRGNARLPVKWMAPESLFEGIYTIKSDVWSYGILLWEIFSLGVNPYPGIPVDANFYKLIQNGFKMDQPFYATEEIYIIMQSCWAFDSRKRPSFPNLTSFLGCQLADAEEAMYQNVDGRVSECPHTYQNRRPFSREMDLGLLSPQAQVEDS

`COc1cc2ncnc(Nc3cccc(Cl)c3)c2cc1OC`: the IC50 is 2.94 µM.

In general, IC50 refers to the concentration at which inhibition is half-maximal.

Values taken from PubChem BioAssay AID1671268.
